Assay results from patent US9301923B2, “Lipids, lipid compositions, and methods of using them” (NOVARTIS AG, priority 2009, dated 2016).

What was measured:
[1] = pKa of the lipid by TNS fluorescence; type: physicochemical; conditions: pKa
Outline: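 Lipid dissolved in ethanol (2 mM stock) and measured with TNS across eight buffers of differing pH, in water at standard temperature and pressure. Normalized fluorescence intensity plotted against pH and points joined by a smooth line to derive pKa, precise to about 0.2 units.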

Factor VII = Factor VII activity assay, in vivo liver delivery of FVII siRNA LNP; parameters: species or system mouse; conditions: ~48 h
Outline: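 Female CD-1 mice (~25 g) given a single i.v. tail-vein dose of FVII siRNA in LNPs (cationic, stealth, neutral lipids), dosed as mg siRNA/kg. Plasma collected ~48 h post-injection; FVII activity read against a standard curve from pooled vehicle-control plasma.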

[2] = Particle size and PDI by dynamic light scattering (Malvern Zetasizer); type: physicochemical
Outline: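 Nanoparticles diluted in PBS to a count rate of about 200-400 kcts and measured by dynamic light scattering; size given as intensity-weighted average diameter, with polydispersity index from the same measurement.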

[3] = dose 3 mg/kg siRNA i.v., lipid/DSPC/CHOL/AVANTI 880150P 50/28/18/4, N/P 3.43
[4] = dose 3 mg/kg siRNA i.v., lipid/no neutral lipid/CHOL/AVANTI 880150P 50/0/46/4, N/P 3.43
[5] = lipid/DSPC/CHOL/AVANTI 880150P 50/28/18/4, N/P 3.43
[6] = lipid/no neutral lipid/CHOL/AVANTI 880150P 50/0/46/4, N/P 3.43
[7] = dose 1 mg/kg siRNA i.v., lipid/no neutral lipid/CHOL/GM-020 NOF 60/0/36/4, N/P 3
[8] = lipid/no neutral lipid/CHOL/GM-020 NOF 60/0/36/4, N/P 3

Row | Structure (SMILES) | pKa [1] | FVII inhib % (Factor VII; dose 1 mg/kg siRNA i.v., lipid/DSPC/CHOL/AVANTI 880150P 50/28/18/4, N/P 3.43) [%] | FVII inhib % (Factor VII; [3]) [%] | FVII inhib % (Factor VII; [4]) [%] | Final size (nm) [2, 5] [nm] | PDI [2, 5] | Final size (nm) [2, 6] [nm] | PDI [2, 6] | FVII inhib % (Factor VII; [7]) [%] | Final size (nm) [2, 8] [nm] | PDI [2, 8]
1 | CCCCC/C=C\C/C=C\CCCCCCCCOCC(CN1CCCCCC1)OCCOCCO[C@H]1CC[C@@]2(C)C(=CC[C@H]3[C@@H]4CC[C@H]([C@H](C)CCCC(C)C)[C@@]4(C)CC[C@@H]32)C1 (some centres unmarked) [E0017] | 6.46 | 53.8 | 98.3 | 96.5 | 106 | 0.17 | 97 | 0.19 | – | – | –
2 | CCCCCCCC/C=C\CCCCCCCCOCC(CN1CCCC1C)OCCOCCO[C@H]1CC[C@@]2(C)C(=CC[C@H]3[C@@H]4CC[C@H]([C@H](C)CCCC(C)C)[C@@]4(C)CC[C@@H]32)C1 (some centres unmarked) [E0065] | 6.8 | – | – | – | – | – | – | – | 41.1 | 153.01 | 0.148
3 | CCCCC/C=C\C/C=C\CCCCCCCCOCC(CN1CC[C@H]2OC(C)(C)O[C@H]2C1)OCCOCCO[C@H]1CC[C@@]2(C)C(=CCC3C2CC[C@@]2(C)C3CC[C@@H]2[C@H](C)CCCC(C)C)C1 (some centres unmarked) [E0009] | 4.89 | – | 38.4 | 6.9 | 83 | 0.2 | 82 | 0.16 | – | – | –
4 | CCCCC/C=C\C/C=C\CCCCCCCCCCOCC(CN1CCCCC1)OCCO[C@H]1CC[C@@]2(C)C(=CC[C@H]3[C@@H]4CC[C@H]([C@H](C)CCCC(C)C)[C@@]4(C)CC[C@@H]32)C1 (some centres unmarked) [E0069] | 6.07 | – | – | – | – | – | – | – | 29 | 113.4 | 0.199
5 | CCCCC/C=C\C/C=C\CCCCCCCCOCC(CN1CC[C@@H]2CCCC[C@H]2C1)OCCOCCO[C@H]1CC[C@@]2(C)C(=CCC3C2CC[C@@]2(C)C3CC[C@@H]2[C@H](C)CCCC(C)C)C1 (some centres unmarked) [E0020] | 6.08 | – | 62.4 | 51.4 | 83 | 0.138 | 81 | 0.084 | – | – | –
6 | CCCCC/C=C\C/C=C\CCCCCCCCOCC(CN1CCC[C@H]1C)OCCOCCO[C@H]1CC[C@@]2(C)C(=CCC3C2CC[C@@]2(C)C3CC[C@@H]2[C@H](C)CCCC(C)C)C1 (some centres unmarked) [E0049] | 6.85 | – | – | 78.8 | – | – | 237 | 0.09 | – | – | –
7 | CCCCC/C=C\C/C=C\CCCCCCCCOCC(CN1CCCCC1)OC(=O)CCC(=O)O[C@H]1CC[C@@]2(C)C(=CCC3C2CC[C@@]2(C)C3CC[C@@H]2[C@H](C)CCCC(C)C)C1 (some centres unmarked) [E0036] | 5.74 | – | −47 | −23.1 | 122 | 0.12 | 76 | 0.24 | – | – | –
8 | CCCCC/C=C\C/C=C\CCCCCCCCOCC(CN1CCC2(CC1)OCCO2)OCCOCCO[C@H]1CC[C@@]2(C)C(=CCC3C2CC[C@@]2(C)C3CC[C@@H]2[C@H](C)CCCC(C)C)C1 (some centres unmarked) [E0016] | 5.85 | – | 88.8 | 59.9 | 97 | 0.175 | 178 | 0.206 | – | – | –
9 | CCCCC/C=C\C/C=C\CCCCCCCCCCC(CN(C)C)OC(=O)CCC(=O)O[C@H]1CC[C@@]2(C)C(=CCC3C2CC[C@@]2(C)C3CC[C@@H]2[C@H](C)CCCC(C)C)C1 (some centres unmarked) [E0174, reference compound] | 5.15 | – | 63.2 | 3.5 | 117 | 0.23 | 90 | 0.21 | – | – | –
10 | CCCCC/C=C\C/C=C\CCCCCCCCOCC(CN1CCc2ccccc2C1)OCCOCCO[C@H]1CC[C@@]2(C)C(=CC[C@H]3[C@@H]4CC[C@H]([C@H](C)CCCC(C)C)[C@@]4(C)CC[C@@H]32)C1 (some centres unmarked) [E0001] | 4.84 | – | 27.6 | 20.1 | 71 | 0.101 | 77 | 0.16 | – | – | –
11 | CCCCC/C=C\C/C=C\CCCCCCCCOCC(CN1CCCC1c1ccccc1)OCCOCCO[C@H]1CC[C@@]2(C)C(=CC[C@H]3[C@@H]4CC[C@H]([C@H](C)CCCC(C)C)[C@@]4(C)CC[C@@H]32)C1 (some centres unmarked) [E0050] | 4.9 | – | −7.2 | −10.4 | 100 | 0.21 | 103 | 0.097 | – | – | –
12 | CCCCC/C=C\C/C=C\CCCCCCCCOCC(CN1CCOCCOCCOCC1)OCCOCCO[C@H]1CC[C@@]2(C)C(=CC[C@H]3[C@@H]4CC[C@H]([C@H](C)CCCC(C)C)[C@@]4(C)CC[C@@H]32)C1 (some centres unmarked) [E0030] | 5.38 | – | – | 12.4 | – | – | 155 | 0.08 | – | – | –
13 | CCCCC/C=C\C/C=C\CCCCCCCCOCC(CN1CCC2(CC1)OCCCO2)OCCOCCO[C@H]1CC[C@@]2(C)C(=CCC3C2CC[C@@]2(C)C3CC[C@@H]2[C@H](C)CCCC(C)C)C1 (some centres unmarked) [E0007] | 5.84 | – | 72.2 | 76.8 | 92 | 0.178 | 138 | 0.148 | – | – | –
